One test has as its target Heat shock protein HSP90 (Homo sapiens, UniProt P07900+P08238). Kind of test: Binding affinity to Hsp90 (unknown origin) assessed as dissociation constant incubated for 30 mins by fluorescence spectrophotometric analysis. In kind it is protein assay.
A further test deals with HCT-116. Kind of test: Antiproliferative activity against human HCT-116 cells assessed as cell viability inhibition rate incubated for 72 hr by MTT assay. In kind it is functional, cell-based. The note with it: HCT-116, 72 h. (In general: Tetrazolium dyes change colour on reduction, which living cells bring about.)
The subject of another test is MCF7. Description: Antiproliferative activity against human MCF7 cells assessed as cell viability inhibition rate incubated for 72 hr by MTT assay. In kind it is functional, cell-based. Particulars: MCF7, 72 h.
The next test deals with SK-BR-3. Kind of test: Antiproliferative activity against human SK-BR-3 cells assessed as cell viability inhibition rate incubated for 72 hr by MTT assay. In kind it is functional, cell-based. The note with it: SK-BR-3, 72 h.
The subject of the next test is K562. Kind of test: Antiproliferative activity against human K562 cells assessed as cell viability inhibition rate incubated for 72 hr by MTT assay. In kind it is functional, cell-based. Particulars: K562, 72 h.
The next test relates to A549. Description: Antiproliferative activity against human A549 cells assessed as cell viability inhibition rate incubated for 72 hr by MTT assay. Type of test: functional, cell-based. Particulars: A549, 72 h.

The Kd is the constant that tells how readily two partners part at equilibrium. As a reminder, the pIC50 is the negative decadic logarithm of the IC50, by convention in mol/L.

pIC50: −log10 of the molar value.

For the compound `COc1ccc(CNC(=O)[C@H]2C[C@H](c3ccccc3)CN2C(=O)c2cc(C3CC3)c(O)cc2O)cc1`, the Kd on Heat shock protein HSP90 is on record as 168 nM. For the same compound, the pIC50 is 6.20 with HCT-116; 6.78 with MCF7; 6.20 in the test with SK-BR-3; 6.25 with K562; 6.95 in the test with A549.
On to `CCN(CC)CCNC(=O)[C@H]1C[C@H](c2ccccc2)CN1C(=O)c1cc(C(C)C)c(O)cc1O`, for which the Kd at Heat shock protein HSP90 is 431 nM.
For the compound `COCCNC(=O)[C@H]1C[C@H](c2ccccc2)CN1C(=O)c1cc(C(C)C)c(O)cc1O`, at Heat shock protein HSP90, the Kd is 188 nM.
In the case of `CC(C)CCNC(=O)[C@H]1C[C@H](c2ccccc2)CN1C(=O)c1cc(C(C)C)c(O)cc1O`, the Kd at Heat shock protein HSP90 is recorded as 645 nM.
For `CC(C)c1cc(C(=O)N2C[C@@H](c3ccccc3)C[C@@H]2C(=O)NCC2CC2)c(O)cc1O`, on Heat shock protein HSP90, the Kd is 354 nM.
Turning to `CCN(C)C(=O)[C@H]1C[C@H](c2ccccc2)CN1C(=O)c1cc(C(C)C)c(O)cc1O`, the Kd at Heat shock protein HSP90 came to 1873 nM.
Regarding `CC(NC(=O)[C@H]1C[C@H](c2ccccc2)CN1C(=O)c1cc(C2CC2)c(O)cc1O)c1ccccc1` (some centres undefined), the Kd on Heat shock protein HSP90 stood at 201 nM. The pIC50 is 6.20 in the test on HCT-116; 7.00 in the test with MCF7; 6.20 with SK-BR-3; 6.15 with K562; 6.97 with A549.
`Cc1ccc(CNC(=O)[C@H]2C[C@H](c3ccccc3)CN2C(=O)c2cc(C3CC3)c(O)cc2O)cc1`: on Heat shock protein HSP90, the Kd amounted to 153 nM. The pIC50 in the test on HCT-116 was 6.33; in the test on MCF7 it was 7.05; in the test with SK-BR-3, 6.37; with K562, 6.25; with A549, 7.05.
As to `CC(C)c1cc(C(=O)N2C[C@@H](c3ccccc3)C[C@@H]2C(=O)N2CCN(c3ncccn3)CC2)c(O)cc1O`, on Heat shock protein HSP90, the Kd came to 1631 nM.
Turning to `CCCNC(=O)[C@H]1C[C@H](c2ccccc2)CN1C(=O)c1cc(C(C)C)c(O)cc1O`, on Heat shock protein HSP90, the Kd amounted to 1653 nM.
With `COc1ccc(C(C)NC(=O)[C@H]2C[C@H](c3ccccc3)CN2C(=O)c2cc(C(C)C)c(O)cc2O)cc1` (some centres undefined), the Kd at Heat shock protein HSP90 is on record as 463 nM. The pIC50 was 6.19 in the test with HCT-116; 6.77 in the test with MCF7; 6.14 in the test with SK-BR-3; 6.27 in the test with K562; 6.76 in the test on A549.
As to `CC(C)c1cc(C(=O)N2C[C@@H](c3ccccc3)C[C@@H]2C(=O)N2CCC(OCC3CC3)CC2)c(O)cc1O`, the Kd at Heat shock protein HSP90 was found to be 1632 nM.
In the case of `CC(C)c1cc(C(=O)N2C[C@@H](c3ccccc3)C[C@@H]2C(=O)N(C)Cc2ccccc2)c(O)cc1O`, the Kd at Heat shock protein HSP90 was determined as 2331 nM.
Regarding `CC(C)c1cc(C(=O)N2C[C@@H](c3ccccc3)C[C@@H]2C(=O)NCCCn2ccnc2)c(O)cc1O`, the Kd at Heat shock protein HSP90 is on record as 1376 nM.
The same measure, in the same setting: as for `CC(C)CN(C)C(=O)[C@H]1C[C@H](c2ccccc2)CN1C(=O)c1cc(C(C)C)c(O)cc1O`, the figure is 1573 nM.
On to `COc1ccc(C(C)NC(=O)[C@H]2C[C@H](c3ccccc3)CN2C(=O)c2cc(C3CC3)c(O)cc2O)cc1` (some centres undefined), for which the Kd at Heat shock protein HSP90 was 263 nM. Also, the pIC50 in the test with HCT-116 was 6.19; with MCF7, 6.90; in the test on SK-BR-3 it was 6.35; in the test with K562, 6.18; with A549, 7.09.
For `CC(C)c1cc(C(=O)N2C[C@@H](c3ccccc3)C[C@@H]2C(=O)NCc2ccccc2F)c(O)cc1O`, the Kd at Heat shock protein HSP90 was determined as 231 nM. The pIC50 is 6.42 in the test with HCT-116; 7.06 in the test on MCF7; 6.34 in the test with SK-BR-3; 6.20 in the test with K562; 7.15 in the test with A549.
Consider `CCOCCNC(=O)[C@H]1C[C@H](c2ccccc2)CN1C(=O)c1cc(C(C)C)c(O)cc1O`, for which, at Heat shock protein HSP90, the Kd came to 124 nM.
Turning to `CCN(C(=O)[C@H]1C[C@H](c2ccccc2)CN1C(=O)c1cc(C(C)C)c(O)cc1O)C(C)C`, on Heat shock protein HSP90, the Kd is reported as 2479 nM.
As to `CC(C)c1cc(C(=O)N2C[C@@H](c3ccccc3)C[C@@H]2C(=O)N2CCN(Cc3ccccc3)CC2)c(O)cc1O`, the Kd on Heat shock protein HSP90 turned out to be 1033 nM.
For the compound `CCCN(CCC)C(=O)[C@H]1C[C@H](c2ccccc2)CN1C(=O)c1cc(C(C)C)c(O)cc1O`, the Kd at Heat shock protein HSP90 came to 2516 nM.
Take `CC(C)NC(=O)[C@H]1C[C@H](c2ccccc2)CN1C(=O)c1cc(C(C)C)c(O)cc1O`: on Heat shock protein HSP90, the Kd stood at 1237 nM.
As to `CC(C)c1cc(C(=O)N2C[C@@H](c3ccccc3)C[C@@H]2C(=O)NC2CC2)c(O)cc1O`, the Kd on Heat shock protein HSP90 is reported as 1213 nM.
For the compound `CC(C)c1cc(C(=O)N2C[C@@H](c3ccccc3)C[C@@H]2C(=O)N2CCN(C)CC2)c(O)cc1O`, at Heat shock protein HSP90, the Kd came to 2310 nM.
In the case of `CCCCCNC(=O)[C@H]1C[C@H](c2ccccc2)CN1C(=O)c1cc(C(C)C)c(O)cc1O`, the Kd on Heat shock protein HSP90 came to 2161 nM.
As for `CCCCNC(=O)[C@H]1C[C@H](c2ccccc2)CN1C(=O)c1cc(C(C)C)c(O)cc1O`, the Kd on Heat shock protein HSP90 was determined as 1873 nM.
Take `CC1CCCN(C(=O)[C@H]2C[C@H](c3ccccc3)CN2C(=O)c2cc(C(C)C)c(O)cc2O)C1` (some centres undefined): the Kd at Heat shock protein HSP90 was determined as 2162 nM.
On the same count and under the same terms, for `COCCN1CCN(C(=O)[C@H]2C[C@H](c3ccccc3)CN2C(=O)c2cc(C(C)C)c(O)cc2O)CC1` the value was 637 nM.
For `CCCCN(C)C(=O)[C@H]1C[C@H](c2ccccc2)CN1C(=O)c1cc(C(C)C)c(O)cc1O`, at Heat shock protein HSP90, the Kd came to 1637 nM.
For the compound `CC(C)c1cc(C(=O)N2C[C@@H](c3ccccc3)C[C@@H]2C(=O)N(C)C2CCCCC2)c(O)cc1O`, the Kd on Heat shock protein HSP90 amounted to 1762 nM.
Turning to `CC(C)c1cc(C(=O)N2C[C@@H](c3ccccc3)C[C@@H]2C(=O)N(C)C2CC2)c(O)cc1O`, the Kd on Heat shock protein HSP90 is recorded as 1871 nM.
Consider `CC(C)OCCCNC(=O)[C@H]1C[C@H](c2ccccc2)CN1C(=O)c1cc(C(C)C)c(O)cc1O`, for which, at Heat shock protein HSP90, the Kd stood at 202 nM.
Turning to `CC(C)c1cc(C(=O)N2C[C@@H](c3ccccc3)C[C@@H]2C(=O)N2CCCC2)c(O)cc1O`, the Kd on Heat shock protein HSP90 is listed as 2033 nM.
The same measure, in the same setting: as for `CCCN1CCN(C(=O)[C@H]2C[C@H](c3ccccc3)CN2C(=O)c2cc(C(C)C)c(O)cc2O)CC1`, the figure is 1033 nM; as for `CCC1CCCCN1C(=O)[C@H]1C[C@H](c2ccccc2)CN1C(=O)c1cc(C(C)C)c(O)cc1O` (some centres undefined), 1677 nM.
On to `CC(C)c1cc(C(=O)N2C[C@@H](c3ccccc3)C[C@@H]2C(=O)NC2CCCC2)c(O)cc1O`, for which the Kd on Heat shock protein HSP90 amounted to 876 nM.
Regarding `CC(C)c1cc(C(=O)N2C[C@@H](c3ccccc3)C[C@@H]2C(=O)N2CCCCC2)c(O)cc1O`, on Heat shock protein HSP90, the Kd worked out at 1337 nM.
With `CC(C)c1cc(C(=O)N2C[C@@H](c3ccccc3)C[C@@H]2C(=O)N2CCC(N3CCCCC3)CC2)c(O)cc1O`, the Kd on Heat shock protein HSP90 is reported as 983 nM.
For the compound `O=C(c1ccc(O)cc1)N1Cc2ccccc2C1`, the Kd on Heat shock protein HSP90 worked out at 4300 nM.
As for `CCNC(=O)[C@H]1C[C@H](c2ccccc2)CN1C(=O)c1cc(C(C)C)c(O)cc1O`, the Kd on Heat shock protein HSP90 amounted to 1132 nM.
On to `CC(C)c1cc(C(=O)N2C[C@@H](c3ccccc3)C[C@@H]2C(=O)N2CCN(C(C)C)CC2)c(O)cc1O`, for which the Kd on Heat shock protein HSP90 amounted to 1021 nM.
Still for that read-out and setting: for `CC(C)c1cc(C(=O)N2C[C@@H](c3ccccc3)C[C@@H]2C(=O)N2CCCCC2C)c(O)cc1O` (some centres undefined) the value was 2171 nM; for `CC(C)c1cc(C(=O)N2C[C@@H](c3ccccc3)C[C@@H]2C(=O)N2CCN(CC3CC3)CC2)c(O)cc1O`, 862 nM; for `CC(C)c1cc(C(=O)N2C[C@@H](c3ccccc3)C[C@@H]2C(=O)NC2CCCCC2)c(O)cc1O`, 1076 nM.

The values are drawn from ChEMBL document CHEMBL6153150, “Design, Synthesis, and Biological Evaluation of Chiral-Proline Derivatives as Novel HSP90 Inhibitors” (ACS Med Chem Lett, 2025).
